Measurements published in ChEMBL document CHEMBL5726074, “Histone demethylase inhibitors” (2017).

Assays:
[1] = target: Lysine-specific demethylase 5B (Homo sapiens, UniProt Q9UGL1); assay: Enzymatic Assay: The ability of test compounds to inhibit the activity of Jarid1B was determined in 384-well plate format under the following reaction conditions: 0.8 nM Jarid1B, 300 nM H3K4me3-biotin labeled peptide (Anaspec cat #64357), 2 μM alpha-ketoglutaric acid in assay buffer of 50 mM HEPES, pH7.3, 0.005% Brij35, 0.5 mM TCEP, 0.2 mg/ml BSA, 50 μM sodium L-ascorbate, and 2 μM ammonium iron(II) sulfate. Reaction product was determined quantitatively by TR-FRET after the addition of detection reagent Phycolink Streptavidin-allophycocyanin (Prozyme) and Europium-anti-mono- or di-methylated histone H3 lysine 4 (H3K4me1-2) antibody (PerkinElmer) in the presence of 5 mM EDTA in LANCE detection buffer (PerkinElmer) at a final concentration of 25 nM and 1 nM, respectively.The assay reaction was initiated by the following: 2 μl of the mixture of 900 nM H3K4me3-biotin labeled peptide and 6 μM alpha-ketoglutaric acid with 2 μl of 11-point serial diluted inhibitor in 3% DMSO was added to each well of the plate, followed by the addition of 2 μl of 2.4 nM Jarid1B to initiate the reaction. The reaction mixture was incubated at room temperature for 30 minutes, and terminated by the addition of 6 μl of 5 mM EDTA in LANCE detection buffer containing 50 nM Phycolink Streptavidin-allophycocyanin and 2 nM Europium-anti-H3K4me1-2 antibody. […]
Chain of Lysine-specific demethylase 5B (Q9UGL1 whole entry): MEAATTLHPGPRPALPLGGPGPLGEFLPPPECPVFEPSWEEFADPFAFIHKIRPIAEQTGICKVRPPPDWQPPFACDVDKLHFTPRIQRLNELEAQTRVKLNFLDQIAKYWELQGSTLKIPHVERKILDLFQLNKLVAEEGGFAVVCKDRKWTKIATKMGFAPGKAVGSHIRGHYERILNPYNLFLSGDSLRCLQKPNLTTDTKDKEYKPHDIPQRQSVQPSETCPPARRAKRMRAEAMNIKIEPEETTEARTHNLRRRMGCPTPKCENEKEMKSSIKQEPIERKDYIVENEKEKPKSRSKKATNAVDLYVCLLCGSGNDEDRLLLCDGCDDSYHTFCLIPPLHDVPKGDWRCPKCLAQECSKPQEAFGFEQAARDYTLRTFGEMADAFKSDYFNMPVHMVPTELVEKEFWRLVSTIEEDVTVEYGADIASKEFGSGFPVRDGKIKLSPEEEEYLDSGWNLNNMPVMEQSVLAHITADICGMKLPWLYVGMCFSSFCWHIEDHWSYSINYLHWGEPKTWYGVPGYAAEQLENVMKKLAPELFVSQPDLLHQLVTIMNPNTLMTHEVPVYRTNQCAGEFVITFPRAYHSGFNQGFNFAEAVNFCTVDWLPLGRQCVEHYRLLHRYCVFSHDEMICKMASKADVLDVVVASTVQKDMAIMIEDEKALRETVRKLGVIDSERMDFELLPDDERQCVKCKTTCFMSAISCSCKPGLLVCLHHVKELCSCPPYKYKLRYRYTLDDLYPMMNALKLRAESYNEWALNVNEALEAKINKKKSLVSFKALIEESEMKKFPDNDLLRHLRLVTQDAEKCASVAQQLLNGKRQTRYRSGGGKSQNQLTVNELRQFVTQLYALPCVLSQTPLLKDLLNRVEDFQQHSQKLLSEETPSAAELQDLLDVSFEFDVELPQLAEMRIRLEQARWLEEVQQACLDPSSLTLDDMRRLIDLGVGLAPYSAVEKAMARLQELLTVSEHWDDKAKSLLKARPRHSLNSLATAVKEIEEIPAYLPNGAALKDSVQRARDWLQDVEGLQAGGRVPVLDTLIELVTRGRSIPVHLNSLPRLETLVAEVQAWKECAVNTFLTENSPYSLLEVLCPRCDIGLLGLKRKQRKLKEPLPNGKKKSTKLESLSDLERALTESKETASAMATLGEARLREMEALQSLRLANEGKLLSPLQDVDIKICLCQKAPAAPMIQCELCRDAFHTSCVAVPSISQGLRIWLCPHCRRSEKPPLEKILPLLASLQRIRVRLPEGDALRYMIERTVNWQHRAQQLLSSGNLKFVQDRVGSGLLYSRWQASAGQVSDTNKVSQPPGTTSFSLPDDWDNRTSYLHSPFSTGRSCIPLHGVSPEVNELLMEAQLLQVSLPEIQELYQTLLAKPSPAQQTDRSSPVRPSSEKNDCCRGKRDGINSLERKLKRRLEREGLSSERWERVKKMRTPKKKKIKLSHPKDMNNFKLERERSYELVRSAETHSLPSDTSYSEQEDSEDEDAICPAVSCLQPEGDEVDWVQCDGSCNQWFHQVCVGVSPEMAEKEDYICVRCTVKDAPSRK

[2] = target: T1, Lysine-specific demethylase 4C (Homo sapiens, UniProt Q9H3R0); assay: Enzymatic Assay: The ability of test compounds to inhibit the activity of JMJD2C was determined in 384-well plate format under the following reaction conditions: 0.3 nM JMJD2C, 300 nM H3K9me3-biotin labeled peptide (Anaspec cat #64360), 2 μM alpha-ketoglutaric acid in assay buffer of 50 mM HEPES, pH7.3, 0.005% Brij35, 0.5 mM TCEP, 0.2 mg/ml BSA, 50 μM sodium L-ascorbate, and 2 μM ammonium iron(II) sulfate. Reaction product was determined quantitatively by TR-FRET after the addition of detection reagent Phycolink Streptavidin-allophycocyanin (Prozyme) and Europium-anti-di-methylated histone H3 lysine 9 (H3K9me2) antibody (PerkinElmer) in the presence of 5 mM EDTA in LANCE detection buffer (PerkinElmer) at a final concentration of 50 nM and 1 nM, respectively.The assay reaction was initiated by the following: 2 μl of the mixture of 900 nM H3K9me3-biotin labeled peptide and 6 μM alpha-ketoglutaric acid with 2 μl of 11-point serial diluted inhibitor in 3% DMSO were added to each well of the plate, followed by the addition of 2 μl of 0.9 nM JMJD2C to initiate the reaction. The reaction mixture was incubated at room temperature for 30 minutes, and terminated by the addition of 6 μl of 5 mM EDTA in LANCE detection buffer containing 100 nM Phycolink Streptavidin-allophycocyanin and 2 nM Europium-anti-H3K9me2 antibody. […]
T1 sequence (Q9H3R0 whole entry): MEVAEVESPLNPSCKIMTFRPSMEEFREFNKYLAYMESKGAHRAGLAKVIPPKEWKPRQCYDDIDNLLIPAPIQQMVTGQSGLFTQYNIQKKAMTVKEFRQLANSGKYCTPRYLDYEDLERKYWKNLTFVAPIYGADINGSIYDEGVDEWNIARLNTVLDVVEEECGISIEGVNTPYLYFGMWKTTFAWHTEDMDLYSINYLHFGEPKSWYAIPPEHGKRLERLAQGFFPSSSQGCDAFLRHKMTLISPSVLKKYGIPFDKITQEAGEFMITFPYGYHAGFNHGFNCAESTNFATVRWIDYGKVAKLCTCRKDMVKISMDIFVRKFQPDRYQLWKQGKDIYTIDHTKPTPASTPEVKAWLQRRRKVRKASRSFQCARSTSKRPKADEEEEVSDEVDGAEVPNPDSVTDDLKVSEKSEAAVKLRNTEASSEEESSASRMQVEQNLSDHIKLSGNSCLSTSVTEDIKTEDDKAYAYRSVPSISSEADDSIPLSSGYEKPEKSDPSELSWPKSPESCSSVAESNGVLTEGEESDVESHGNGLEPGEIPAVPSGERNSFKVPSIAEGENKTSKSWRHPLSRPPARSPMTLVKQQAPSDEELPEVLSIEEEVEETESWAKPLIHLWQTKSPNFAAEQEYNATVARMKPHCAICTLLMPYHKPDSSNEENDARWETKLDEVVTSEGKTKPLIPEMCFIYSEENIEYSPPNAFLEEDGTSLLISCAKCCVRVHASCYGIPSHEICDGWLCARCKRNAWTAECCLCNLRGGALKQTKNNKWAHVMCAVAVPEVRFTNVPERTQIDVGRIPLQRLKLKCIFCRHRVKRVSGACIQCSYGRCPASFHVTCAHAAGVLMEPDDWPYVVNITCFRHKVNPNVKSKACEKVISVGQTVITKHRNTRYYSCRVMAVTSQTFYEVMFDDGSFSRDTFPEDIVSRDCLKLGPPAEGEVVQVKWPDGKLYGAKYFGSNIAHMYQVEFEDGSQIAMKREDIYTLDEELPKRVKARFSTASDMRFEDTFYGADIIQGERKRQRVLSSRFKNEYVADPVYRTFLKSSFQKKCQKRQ

[3] = target: Lysine-specific demethylase 5A (Homo sapiens, UniProt P29375); assay: Enzymatic Assay: The enzymatic assay of Jarid1A activity is based upon Time Resolved-Fluorescence Resonance Energy Transfer (TR-FRET) detection. The ability of test compounds to inhibit the activity of Jarid1A was determined in 384-well plate format under the following reaction conditions: 1 nM Jarid1A, 300 nM H3K4me3-biotin labeled peptide (Anaspec cat #64357), 2 μM alpha-ketoglutaric acid in …
Chain of Lysine-specific demethylase 5A (P29375 whole entry): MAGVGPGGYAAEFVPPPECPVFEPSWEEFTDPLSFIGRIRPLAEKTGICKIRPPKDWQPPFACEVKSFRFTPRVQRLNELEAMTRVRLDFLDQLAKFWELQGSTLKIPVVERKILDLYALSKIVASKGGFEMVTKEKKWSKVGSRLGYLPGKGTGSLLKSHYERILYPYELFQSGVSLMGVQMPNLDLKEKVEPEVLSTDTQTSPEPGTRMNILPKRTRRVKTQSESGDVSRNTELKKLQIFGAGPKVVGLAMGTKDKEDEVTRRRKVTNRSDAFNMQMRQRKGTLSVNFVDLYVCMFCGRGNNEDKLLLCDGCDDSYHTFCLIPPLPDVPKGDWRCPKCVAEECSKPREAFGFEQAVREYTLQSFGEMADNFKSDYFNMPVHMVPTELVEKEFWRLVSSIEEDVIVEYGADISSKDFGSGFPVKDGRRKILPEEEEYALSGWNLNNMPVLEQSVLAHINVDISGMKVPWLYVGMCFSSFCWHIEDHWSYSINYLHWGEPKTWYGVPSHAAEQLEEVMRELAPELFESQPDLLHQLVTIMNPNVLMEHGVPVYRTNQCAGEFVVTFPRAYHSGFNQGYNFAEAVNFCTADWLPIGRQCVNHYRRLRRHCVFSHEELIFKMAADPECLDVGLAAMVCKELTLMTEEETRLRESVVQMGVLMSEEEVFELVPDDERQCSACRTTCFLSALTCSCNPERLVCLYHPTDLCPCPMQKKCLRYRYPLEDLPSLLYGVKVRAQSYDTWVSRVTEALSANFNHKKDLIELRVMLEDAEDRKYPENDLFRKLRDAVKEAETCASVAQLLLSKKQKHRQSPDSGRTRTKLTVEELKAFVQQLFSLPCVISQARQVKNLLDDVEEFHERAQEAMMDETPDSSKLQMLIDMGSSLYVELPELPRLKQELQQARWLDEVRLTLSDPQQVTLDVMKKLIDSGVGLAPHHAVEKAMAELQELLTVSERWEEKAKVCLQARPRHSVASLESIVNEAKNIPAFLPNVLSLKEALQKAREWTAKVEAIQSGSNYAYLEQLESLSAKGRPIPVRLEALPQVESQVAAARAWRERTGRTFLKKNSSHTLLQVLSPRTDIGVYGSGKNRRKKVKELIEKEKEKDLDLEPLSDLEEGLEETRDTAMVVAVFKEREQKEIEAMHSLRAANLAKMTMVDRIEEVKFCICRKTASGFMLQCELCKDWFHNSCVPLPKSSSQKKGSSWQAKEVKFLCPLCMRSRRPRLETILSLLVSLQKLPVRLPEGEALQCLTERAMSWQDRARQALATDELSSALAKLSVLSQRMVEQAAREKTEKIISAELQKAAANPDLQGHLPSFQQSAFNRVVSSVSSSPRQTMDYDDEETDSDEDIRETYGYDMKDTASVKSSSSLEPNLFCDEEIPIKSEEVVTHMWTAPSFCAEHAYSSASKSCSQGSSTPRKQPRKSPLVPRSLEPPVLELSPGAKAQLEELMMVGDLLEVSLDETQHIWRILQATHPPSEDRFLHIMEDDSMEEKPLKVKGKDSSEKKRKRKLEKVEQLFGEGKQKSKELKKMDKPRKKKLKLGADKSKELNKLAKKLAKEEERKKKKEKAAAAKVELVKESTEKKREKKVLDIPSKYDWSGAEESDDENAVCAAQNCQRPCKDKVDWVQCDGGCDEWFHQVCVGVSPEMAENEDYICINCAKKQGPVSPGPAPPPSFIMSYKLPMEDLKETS

IC50 [1]: < 100 nM
IC50 [2]: < 100 nM
IC50 [3]: < 100 nM
SMILES: O=C(O)c1ccncc1NCC1CCc2ccccc21 (stereo not drawn)
